# Data reported in patent publication US20220110916A1, “Antioxidant and Use Thereof” (Bioradical Research Institute Corp., priority 2019, published 2022).
# Legend:
# [1] = Storage stability in pH7.4-PBS or pure water at 37° C. protected from light, residual rate by HPLC; assay type: physicochemical; conditions: 200 μmol/l; for Residual rate (%) After 1 week / Residual rate (%) After 2 weeks: 37° C., protected from light; for Residual rate (%) Initial concentration: initial concentration (reference 100%)
# Experimental: The storage stability of edaravone, EMPO, ED2AP, and BisEp-C3 of the following formula (A) were examined. Specifically, edaravone, EMPO, ED2AP, and BisEp-C3 were dissolved in pH7.4-PBS or pure water so as to have a final concentration of 200 μmol/l to prepare dissolved solutions of these compounds. When the compounds were difficult to be dissolved, they were dissolved in an ultrasonic cleaner with warm water at 40° C.
# Under the measurement conditions for HPLC described below, the initial concentration was quantified, and then each solution was stored in an oven, which was protected from light, at 37° C., and quantified under the same measurement conditions after 1 week and 2 weeks, to determine residual rate (%) with the initial concentration (100%) being a reference.
# Measurement conditions for HPLC
# PDA detector (Format: SPD-M20A) HPLC Assay Conditions:
# Column: Atlantis dC18 5 μm (250×4.6 mm I.D.; produced by Waters)
# Column temperature: 45° C.
# Detection method: UV (254 nm)
# Eluate A: pH3 buffer solution (adjusted to pH3 by adding phosphoric acid to 0.05M KH2PO4 aqueous solution)/methanol=90/10
# [2] = Water solubility noted at synthesis; assay type: physicochemical; conditions: crystal obtained in Example 1
# Experimental: 3.58 g of 3-methyl-1-phenyl-5-pyrazolone (hereinafter, also referred to as “edaravone”), 2.59 g of malonaldehyde dianilide hydrochloride, and 20 ml of ethanol were added to a reactor and dissolved. To the obtained solution, 2.04 g of triethylamine and 0.4 ml of water were added and stirred for 1 hour at room temperature (about 25° C., hereinafter, the same applies). After the stirring, the resultant was further reacted for 1 hour at 50° C. After discharging the obtained reaction solution to 100 ml of 1N hydrochloric acid, the mixture was sufficiently stirred and the precipitate was filtered. The resulting cake was washed with water. The cake was added to 200 ml of an aqueous sodium hydroxide solution having a 1% by weight concentration and completely dissolved by heating with stirring. Next, the dissolved solution was stirred for 3 hours after cooling to room temperature. Then, the liquid containing the obtained precipitate was filtered, and then the cake was washed with water. […] Note that the melting point of ED2AP was 249° C., which was water-soluble.
# 3 ml of dimethylformamide was added to a reactor and the exterior of the reactor was cooled with ice water. 1.75 g of phosphorus oxychloride was slowly dropped into the reactor (Reaction Solution A). In another reactor, 1.78 g of edaravone was dissolved in 5 ml of dimethylformamide (Reaction Solution B). Under room temperature, the reaction solution B was slowly added to the reaction solution A, and the resulting mixture was allowed to react for 1 hour with the end of addition (Reaction Solution C) being a reference. In another reactor, 1.81 g of 3-methyl-1-phenyl-5-pyrazolone was added to 8 ml of chloroform and dissolved (Reaction Solution D). Under room temperature, the reaction solution C was slowly added to the reaction solution D, followed by stirring for 20 minutes and further stirring at 70° C. for 1 hour. To the resultant, 0.2 g of water was added and stirred for another 2 hours. The obtained reaction solution was discharged into 100 ml of water and extracted with a mixed solvent of toluene/ethyl acetate=1/1 (volume ratio). After condensation of the obtained extract, column purification was performed to obtain 2.92 g of yellow crystal of the compound of the formula (10) having the following physical properties.
# 1.00 g of edaravone, 0.72 g of paraformaldehyde, and 20 ml of formic acid were added to a reaction flask and stirred overnight for 20 hours at 70° C. The obtained reaction solution was discharged into 80 ml of water and extracted with a mixed solvent of toluene/ethyl acetate=1/1 (volume ratio). When the extract was condensed to about two-thirds, crystals were precipitated. Further, the resultant was cooled to room temperature, and sufficiently crystallized, and then filtered. The obtained cake was washed with toluene to obtain 0.88 g of pale yellow crystal of the compound of the formula (14) having the following physical properties.
# In Example 1(1), synthesis was performed in the same manner as described above except that 3-methyl-1-ethyl-5-pyrazolone was used instead of edaravone to obtain red crystal of BisEp-C3 having the following physical properties. Note that BisEp-C3 was water-soluble.
# In Example 1(2), synthesis was performed in the same manner as described above except that 3-methyl-1-ethyl-5-pyrazolone was used instead of edaravone to obtain yellow crystal of BisEp-C1 having the following physical properties. Note that BisEp-C1 was water-soluble.
# In Example 1(3), synthesis was performed in the same manner as described above except that 3-methyl-1-ethyl-5-pyrazolone was used instead of edaravone, then the obtained reaction solution was condensed, and the resultant was subjected to column purification to obtain colorless crystal of BisEp-C1 (H2) having the following physical properties. Note that BisEp-C1 (H2) was water-soluble.
# [3] = tested on: neutrophils isolated from the peripheral blood of healthy individuals; assay: Superoxide production amount of PMA-stimulated neutrophils, CLA chemiluminescence; assay type: cell-based, human; conditions: 0-200 μmol/l or 0-5000 μmol/l; PMA 100 ng/ml; control being 100; FIG. 2
# Experimental: For examining the reactive oxygen-eliminating effect of the antioxidant of the present invention, the superoxide produced by the neutrophils when the neutrophils isolated from the peripheral blood of healthy individuals were stimulated with PMA (phorbor-12-myristate-13-acetate) was used. The superoxide production amount was measured by chemiluminescence using CLA (2-methyl-6-pjenyl-3, 7-dihydroimidazo[1,2-a]pyrazine-3-one).
# First, ED2AP, BisEp-C3, edaravone, BisEp-C1, or BisEp-C1 (H2) was added to a neutrophil of 4×10^5 cells per sample so as to achieve a predetermined concentration (0, 12.5, 25, 50, 100, or 200 μmol/l, or 0, 125, 250, 500, 1250, 2500, or 5000 μmol/l) with 5 μmol of CLA, and then the cell suspension was seeded in flat-bottomed 96-well plates. The volume of the suspension was 200 μl/well, and phenol red free Ca+, Mg+ HBSS was used as the solution. In addition, the neutrophil was stimulated by adding PMA so as to achieve a concentration of 100 ng/ml. After the stimulation, a plate reader (Envision 2104 Multilabel Reader, produced by Perkin Elmer Co., Ltd.) was used to measure the chemiluminescence value over time for 30 minutes with the PMA stimulation time being a reference. The measurement interval was 30 seconds. The sum of the chemiluminescence values obtained every 30 seconds for 30 minutes was taken as the superoxide production amount. In addition, as a control, the superoxide production amount was measured in the same manner except that each compound was not added. The relative value of the superoxide production amount when each compound was added was calculated with the superoxide production amount of the control being 100.
# rat neuroid cells B50 = assay: Alleviation of singlet oxygen (Rose Bengal + G-LED) cytotoxicity, Alamar Blue fluorescence; assay type: cell-based; conditions: 4 mmol/l; 200 nmol/l RB + G-LED 5 minutes; negative control being 100; RB control 33.17
# Experimental: Edaravone, ED2AP and BisEp-C3 were examined whether they had the function of alleviating neuronopathy. Specifically, singlet oxygen was generated by combining Rose Bengal (RB), which is a sensitizer, with green light (G-LED), and the function of alleviating the cytotoxicity of the generated singlet oxygen was examined with the cellular activity being an indicator.
# First, rat neuroid cells B50 were cultured in 12-well dishes at 2×10^5 cells/well (medium: RPMI-1640 medium containing 5% FCS) overnight. After the culturing, the medium of each well was replaced with HBSS (1000 μl/well; phenol red free Ca+, Mg+) containing 200 nmol/l RB and edaravone, ED2AP, or BisEp-C3 having a predetermined concentration (0, 12.5, 25, 50, or 100 μmol/l). The dish was then irradiated with G-LED for 5 minutes to generate singlet oxygen. Thereafter, the medium of each well was replaced with 1000 μl of HBSS and Alamar Blue was added. The dish was then allowed to react for about 2 hours in an incubator at 37° C. and 5% CO2. After the reaction, fluorescence intensity (excitation wavelength: λ-560 nm, fluorescence wavelength: λ-595 nm) was measured with a plate reader (infinite200, Tecan Trading AG). In this experimental system, the higher the cellular activity, the more Alamar Blue is taken up and the higher the fluorescence intensity. As a control, fluorescence intensity was measured in the same manner except that sodium azide (Azide, NaN3) was added instead of the compounds so as to achieve a concentration of 4 mmol/l. As a negative control (NC), fluorescence intensity was measured in the same manner except that RB was not added. The relative value of the fluorescence intensity in the sample to which each compound was added was calculated with the fluorescence intensity of the negative control being 100.
compound,measurement,setting,value
"CCN1N=C(C)CC1=O [EMPO, reference compound]",Residual rate (%) After 1 week,[1]; Pure water,6.3%
same,Residual rate (%) After 2 weeks,[1]; Pure water,1.4%
same,Residual rate (%) Initial concentration,[1]; Pure water,100%
same,Residual rate (%) After 1 week,[1]; pH 7.4-PBS,0.0%
same,Residual rate (%) After 2 weeks,[1]; pH 7.4-PBS,0.0%
same,Residual rate (%) Initial concentration,[1]; pH 7.4-PBS,100%
"Cc1nn(-c2ccccc2)c(O)c1Cc1c(C)nn(-c2ccccc2)c1O [formula (14), 4,4′-methylenebis[3-methyl-1-phenyl-1H-pyrazol-5-ol]]",solubility in water,[2],poorly soluble in water
CCN1N=C(C)/C(=C/c2c(C)nn(CC)c2O)C1=O [BisEp-C1],solubility in water,[2],water-soluble
same,relative value of the superoxide production amount,[3],suppressed the superoxide production amount in a concentration-dependent manner
"[N-]=[N+]=[N-] [sodium azide, reference compound]",relative value of the fluorescence intensity,rat neuroid cells B50,80.81
"CC1=NN(c2ccccc2)C(=O)/C1=C\c1c(C)nn(-c2ccccc2)c1O [formula (10), 2,4-dihydro-4-[(5-hydroxy-3-methyl-1-phenyl-1H-pyrazol-4-yl)methylene]-5-methyl-2-phenyl-3H-pyrazol-3-one]",solubility in water,[2],poorly soluble in water
"CCn1nc(C)c(Cc2c(C)nn(CC)c2O)c1O [BisEp-C1 (H2), 4,4′-methylenebis[1-ethyl-3-methyl-1H-pyrazol-5-ol]]",solubility in water,[2],water-soluble
same,relative value of the superoxide production amount,[3],suppressed the superoxide production amount in a concentration-dependent manner
